Laboratory results: patent US12673915B2, “Precursor compound of hexahydro-beta-acid component compound, feed composition and use thereof” (WISORIG TECHNOLOGIES PTE. LIMITED, priority 2020, dated 2026)

What was measured:
[1] = Thermal stability testing at 60° C. of ingredient and 1% premix (HPLC); format: physicochemical
Description: Preparation of a sample of 1% premix of an ingredient: 1 g of an ingredient was respectively weighed out and evenly mixed with 99 g of corncob meal in a mixer to give a sample of 1% premix of an ingredient for testing.
Thermal stability testing at 60° C.: The samples of an ingredient and 1% premix thereof were respectively spread in petri dishes to form thin layers of <5 mm, and kept at 60° C. Two replications for a sample were taken in parallel on day 5 and day 10 for HPLC analysis.
25.0 mg of an ingredient was accurately weighed out and dissolved in an appropriate amount of methanol by ultrasonication. The solution was then transferred to a volumetric flask and diluted to 25 mL with methanol to give a stock solution. The samples from the stock solution were diluted with methanol respectively to a concentration of 100 ppm, 500 ppm, and 1000 ppm of work solution, and then the working solutions were filtered by 0.22 μm organic membranes. Between the concentration of a sample and the response value of HPLC peak area thereof, the linearity was adjusted and detected to give a standard curve.
2.3: Preparation of Sample Solution 25.0 mg of an ingredient and 2.0000 g of a sample of 1% premix thereof were respectively accurately weighed out, and dissolved in 25 mL of methanol by ultrasonication for 10 minutes. The resulting solutions were filtered by organic membranes and then analyzed by HPLC. 2.4: Testing Conditions for HPLC • Column: Symmetry Cis column (Waters; 250 mm*4.6 mm, 5 μm). • Mobile phase: 0.02% phosphoric acid:methanol=5:95 (v:v). • Wavelength: 235 nm. • Temperature of the Column: 25° C. • Injection volume: 10 μL. • Flow rate: 1 mL/min. 3: Results

[2] = Long-term stability in feeds at room temperature (25° C.±2° C., RH 60%±10%; HPLC); format: physicochemical; settings: for stability / content in feeds at room temperature (in words): during the testing period
Text: Feeds: ZUSF's premixed feed (A mixture of crushed Feed A and crushed Feed B at a weight ratio of 2:1, wherein Feed A was a 5.33% multi-premixed feed for piglets from ZUSF's Hao-Ru-Zhen-Jing, and B was a 2.67% multi-premixed feed for piglets from ZUSF's Hao-Ru-Zhen-Jing); creep feed for piglets from CP FEED; INSIGHTER's feed for broiler; 4% premixed feed from GUANGDONG CO-POWER.
Preparation of a sample of 1% premix of Ingredient: 1 g of an ingredient was respectively weighed out and evenly mixed with 99 g of corncob meal in a mixer to give a sample of 1% premix of an ingredient.
Preparation of a sample of 500 ppm feed of an ingredient: The sample of 1% premix of an ingredient was diluted step by step using the ZUSF's remixed feed to 5000 ppm and 500 ppm to give the sample of 500 ppm feed of an ingredient for later testing.
Preparation of a sample of 100 ppm feed of an ingredient: sample of 1% premix of an ingredient was diluted step by step using the creep feed for piglets from CP FEED to 1000 ppm and then 100 ppm to give the sample of 100 ppm feed of an ingredient for later testing.
Preparation of a sample of 100 ppm feed of an ingredient: The sample of 1% premix of an ingredient was diluted step by step using the INSIGHTER's feed for broiler to 1000 ppm and 100 ppm to give the sample of 100 ppm feed of an ingredient for later testing.
Preparation of a sample of 2000 ppm feed of an ingredient: The sample of 1% premix of an ingredient was diluted step by step using the 4% premixed feed from GUANGDONG CO-POWER to 5000 ppm and 2000 ppm to give the sample of 2000 ppm feed of an ingredient for later testing.
Method: Three replications of each feed sample were tested at the condition of 25° C.±2° C. and RH 60%±10%, wherein the replications of each feed sample were sampled in parallel for HPLC analysis on day 5, day 10, day 15, day 30, day 60, and day 90.
25.0 mg of an ingredient was accurately weighed out and dissolved in an appropriate amount of methanol or n-hexane by ultrasonication. The solution was then transferred to a volumetric flask and diluted to 50 mL to give a 500 ppm (by wt.) stock solution. The samples from the stock solution were diluted with methanol or n-hexane respectively to a concentration of 10 ppm, 25 ppm, 50 ppm, 100 ppm, and 250 ppm of work solution, and then the working solutions were filtered by 0.22 μm organic membranes. Between the concentration of a sample and the response value of HPLC peak area thereof, the linearity was adjusted and detected to give a standard curve.
5.0000 g of the samples sampled at different time intervals were respectively accurately weighed out, and dissolved in 25 mL of methanol or n-hexane by ultrasonication for 10 minutes. The resulting solutions were filtered by organic membranes and then analyzed by HPLC.
• Equipment: Waters e2695 with PDA detector. • Mobile phase: 0.02% phosphoric acid:methanol=5:95 (v:v). • Column: Symmetry Cis column (Waters; 250 mm×4.6 mm, 5 μm). • Wavelength: 235 nm. • Temperature of the Column: 25° C. • Injection volume: 10 μL. • Flow rate: 1 mL/min. Normal Phase Chromatography: • Equipment: Shimadzu LC-14C/SPD-15C. • Column: SuperSil NH2 column ([…]; 250 mm×4.6 mm). • Mobile phase: n-hexane:isopropanol=60:40 (v:v). • Wavelength: 235 nm. • Temperature of the Column: 25° C. • Injection volume: 20 μL. • Flow rate: 1 mL/min. 3: Results

[3] = 1% Premix of an ingredient (corncob meal), Day 5
[4] = 1% Premix of an ingredient (corncob meal), Day 10
[5] = 100 ppm in INSIGHTER's broiler feed, Day 5
[6] = 100 ppm in INSIGHTER's broiler feed, Day 15
[7] = 100 ppm in INSIGHTER's broiler feed, Day 30
[8] = 100 ppm in INSIGHTER's broiler feed, Day 60
[9] = 100 ppm in creep feed for piglets from CP FEED, Day 5
[10] = 100 ppm in creep feed for piglets from CP FEED, Day 15
[11] = 100 ppm in creep feed for piglets from CP FEED, Day 30
[12] = 100 ppm in creep feed for piglets from CP FEED, Day 60
[13] = 100 ppm in creep feed for piglets from CP FEED, Day 90
[14] = 500 ppm in ZUSF's premixed feed, Day 5
[15] = 500 ppm in ZUSF's premixed feed, Day 15
[16] = 500 ppm in ZUSF's premixed feed, Day 30
[17] = 500 ppm in ZUSF's premixed feed, Day 60
[18] = 500 ppm in ZUSF's premixed feed, Day 90

Row | Residual amount of active ingredient [1, 3] [%] | Residual amount of active ingredient [1, 4] [%] | Residual amount of active ingredient ([1]; Ingredient, Day 5) [%] | Residual amount of active ingredient ([1]; Ingredient, Day 10) [%] | Residual amount of active ingredient [2, 5] [%] | Residual amount of active ingredient [2, 6] [%] | Residual amount of active ingredient [2, 7] [%] | Residual amount of active ingredient [2, 8] [%] | Residual amount of active ingredient [2, 9] [%] | Residual amount of active ingredient [2, 10] [%] | Residual amount of active ingredient [2, 11] [%] | Residual amount of active ingredient [2, 12] [%] | Residual amount of active ingredient [2, 13] [%] | Residual amount of active ingredient [2, 14] [%] | Residual amount of active ingredient [2, 15] [%] | Residual amount of active ingredient [2, 16] [%] | Residual amount of active ingredient [2, 17] [%] | Residual amount of active ingredient [2, 18] [%] | stability / content in feeds at room temperature (in words) [2] | Structure (SMILES) | also measured
1 | 99.40 | 98.68 | 99.69 | 99.44 | 94.93 | 81.77 | 72.30 | 71.97 | 97.69 | 96.27 | 96.22 | 96.16 | 95.08 | 96.65 | 96.65 | 96.84 | 95.23 | 85.29 | relatively poor in some of the feeds | CC(=O)OC1=C(CCC(C)C)C(=O)C(CCC(C)C)(CCC(C)C)C(O)=C1C(=O)C(C)C [hexahydro-colupulone mono-acetate, Hexahydro-Colupulone Mono-Acetate] | 
2 | 98.21 | 97.57 | 99.76 | 99.64 | 99.00 | 98.79 | 98.39 | 98.11 | 98.19 | 96.62 | 95.70 | 95.47 | 95.77 | 100.31 | 98.23 | 96.01 | 96.13 | 95.29 |  | CCCC(=O)OC1=C(CCC(C)C)C(=O)C(CCC(C)C)(CCC(C)C)C(O)=C1C(=O)C(C)C [hexahydro-colupulone mono-butyrate] | Residual amount of active ingredient ([2]; 2000 ppm in 4% premixed feed from GUANGDONG CO-POWER, Day 5): 98.62%; Residual amount of active ingredient ([2]; 2000 ppm in 4% premixed feed from GUANGDONG CO-POWER, Day 15): 95.56%; Residual amount of active ingredient ([2]; 2000 ppm in 4% premixed feed from GUANGDONG CO-POWER, Day 30): 95.48%; Residual amount of active ingredient ([2]; 2000 ppm in 4% premixed feed from GUANGDONG CO-POWER, Day 60): 96.34%; Residual amount of active ingredient ([2]; 2000 ppm in 4% premixed feed from GUANGDONG CO-POWER, Day 90): 95.41%
3 | 97.02 | 93.56 | 99.76 | 99.10 |  |  |  |  | 98.28 | 96.93 | 93.07 | 77.54 | 68.28 |  |  |  |  |  | decreased substantially | CC(C)CCC1=C(O)C(C(=O)C(C)C)=C(O)C(CCC(C)C)(CCC(C)C)C1=O [hexahydro-colupulone, reference compound] | change of active ingredient ([1]; active ingredient of 1% premix, 10-day testing period): more than 5%
